The record followed here is patent US4743585A (Warner-Lambert Company, priority 1986, dated 1988).

In the experiment the target is T1, renin (Homo sapiens, UniProt P00797).
T1 sequence (P00797 67-406): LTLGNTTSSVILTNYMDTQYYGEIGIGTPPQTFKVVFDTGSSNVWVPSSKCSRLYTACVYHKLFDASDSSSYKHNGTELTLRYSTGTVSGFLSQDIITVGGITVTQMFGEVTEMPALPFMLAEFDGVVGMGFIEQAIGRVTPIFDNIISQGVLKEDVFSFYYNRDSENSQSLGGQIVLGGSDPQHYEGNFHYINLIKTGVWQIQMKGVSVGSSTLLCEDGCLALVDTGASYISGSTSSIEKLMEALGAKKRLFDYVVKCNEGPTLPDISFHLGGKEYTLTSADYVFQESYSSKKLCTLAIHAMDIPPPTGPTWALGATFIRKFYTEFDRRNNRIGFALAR
The experiment is described as follows: in vitro renin inhibitory activity, standard radioimmunoassay for angiotensin I. The class given is biochemical. On the procedure: The effectiveness of the aforementioned compounds is determined by a test for in vitro renin inhibitory activity. This activity is determined by a standard radioimmunoassay for angiotensin I. In this assay the enzyme, renin, incubated for two hours at 37° in the presence of a substrate, angiotensinogen, generates the product, angiotensin I. Test compounds are added to the incubation mixture.
Regarding `CC(C)CC(NC(=O)CC(O)C(CC(C)C)NC(=O)C(Cc1ccccc1)SCC(Cc1ccccc1)NC(=O)CCCC(=O)O)C(=O)NCc1ccccc1` (stereo not shown) [Example 44, 8-hydroxy-4,9-bis(2-methylpropyl)-3,6,11,17-tetraoxo-1-phenyl-12,15-bis(phenylmethyl)-13-thia-2,5,10,16-tetraazaheneicosan-21-oic acid], the IC50 (commonly the point on the concentration scale where inhibition reaches its midpoint) worked out at 30 µM.

For `CC(C)CC(=O)NC(CCCC(=O)NC(CC(C)C)C(O)CC(=O)NC(CC(C)C)C(=O)NCc1ccccc1)Cc1ccccc1` (stereo not shown) [Example 47, N-[2-hydroxy-4-[[3-methyl-1-[[(phenylmethyl)amino]carbonyl]butyl]amino]-1-(2-methylpropyl)-4-oxobutyl]-δ-[(3-methyl-1-oxobutyl)amino]benzenehexanamide], the IC50 was found to be 26 µM.

Consider `CC(C)CC(NC(=O)CCC(=O)C(Cc1ccccc1)NC(=O)c1ccccc1)C(O)CC(=O)NC(C)C(=O)NC(CC(C)C)C(O)CC(=O)NCc1ccccc1` (stereo not shown) [Example 48], for which the IC50 came out at 30 µM.

In the case of `CC(C)C[C@H](NC(=O)CCC(=O)C(Cc1ccccc1)NC(=O)OC(C)(C)C)[C@@H](O)CC(=O)N[C@@H](C)C(=O)N[C@@H](CC(C)C)[C@@H](O)CC(=O)NCc1ccccc1` (stereo partly drawn) [Example 50, 5,13-dihydroxy-9-methyl-6,14-bis(2-methylpropyl)-3,8,11,16,19-pentaoxo-1-phenyl-20-(phenylmethyl)-2,7,10,15,21-pentaazadocosan-22-oic acid, 1,1-dimethylethyl ester; (5S,7S,13S,14S,20RS)], the IC50 was determined as 30 µM.

In turn, `CC(C)CC(CC(=O)[C@H](CC1CCCCC1)NC(=O)OC(C)(C)C)C(=O)N[C@@H](CC(C)C)[C@@H](O)CC(=O)N[C@@H](CC(C)C)C(=O)NCc1ccccc1` (stereo partly shown) [Example 51] showed an IC50 of 26 µM.

Regarding `CCOC(=O)C[C@H](O)[C@H](CC(C)C)NC(=O)[C@@H](NC[C@@H](NC(=O)CC(C)C)C(C)C)C(C)C` [Example 53, Heptanoic acid, 3-hydroxy-6-methyl-4-[[3-methyl-2-[[3-methyl-2-[(3-methyl-1-oxobutyl)amino]butyl]amino]-1-oxobutyl]amino]-, ethyl ester, [3S-[3R*,- 4R*[R*[R*[(R*)]]]]-], half-maximal inhibition (IC50) was put at 28 µM.

Molecule `CC(C)CC(=O)N[C@H](CN[C@H](C(=O)N[C@@H](CC(C)C)[C@@H](O)CC(=O)NCc1ccccc1)C(C)C)C(C)C` [Example 54, IVA-VAL[CH2 NH]VAL-STA-NHCH2 Ph] returned an IC50 of 30 µM.

On to `CC(C)C[C@@H](CN(Cc1ccccc1)C(=O)OCc1ccccc1)NC(=O)C[C@H](O)[C@H](CC(C)C)NC(=O)[C@@H](NC(=O)[C@H](Cc1ccccc1)NC(=O)OC(C)(C)C)C(C)C` [Example 56, l-valinamide.N-[(1,1-dimethylethoxy)carbonyl]-L-phenylalanyl-N-[2-hydroxy-4-[[3-methyl-1-[[[(phenylmethoxy)carbonyl](phenylmethyl)amino]methyl]butyl]amino]-1-(2-methylpropyl)-4-oxobutyl]-, [2S-[1R*,2R*,4R*)]]-], for which the midpoint of inhibition, the IC50, lay at 16 µM.

With `CC(C)CC(=O)N[C@@H](Cc1ccccc1)C(=O)N[C@@H](Cc1c[nH]cn1)C(=O)N[C@@H](CC(C)C)[C@@H](O)CC(=O)N[C@@H](CC(C)C)CN(Cc1ccccc1)C(=O)OCc1ccccc1` [Example 57, L-histidinamide. N-(3-methyl-1-oxobutyl)-L-phenylalanyl-N-[2-hydroxy-4-[[3-methyl-1-[[[(phenylmethoxy)carbonyl](phenylmethyl)amino]methyl]butyl]amino]-1-(2-methylpropyl)-4-oxobutyl]-, [1S-[1R*,2R*,4(R*)]]-], the midpoint of inhibition, the IC50, lay at 3 µM.

Turning to `CC(C)CC(=O)N[C@@H](Cc1ccccc1)C(=O)N[C@@H](Cc1c[nH]cn1)C(=O)N[C@@H](CC(C)C)[C@@H](O)CC(=O)N[C@H](CNCc1ccccc1)CC(C)C` [Example 58, IVA-PHE-HIS-STA-LEU[CH2 NH]CH2 Ph], the IC50 stood at 1.9 µM.

`CC(C)C[C@H](NC(=O)[C@H](C)NC(=O)C[C@H](O)[C@H](CC(C)C)NC(=O)[C@H](Cc1ccccc1)NC[C@H](Cc1ccccc1)NC(=O)OC(C)(C)C)[C@@H](O)CC(=O)NCc1ccccc1` [Example 59, BOC-PHE[CH2 NH]PHE-STA-ALA-STA-NHCH2 Ph] showed an IC50 of 5.6 µM.

Molecule `Cc1c(C)c(C)c(C[C@H](CN[C@@H](Cc2c[nH]cn2)C(=O)N[C@@H](CC(C)C)[C@@H](O)CC(=O)N[C@@H](CC(C)C)C(=O)NC2CCN(Cc3ccccc3)CC2)NC(=O)OC(C)(C)C)c(C)c1C` [Example 61] displayed an IC50 of 30 µM.

In the case of `CC(C)C[C@H](NC(=O)C[C@H](O)[C@H](CC(C)C)NC(=O)[C@H](Cc1cncn1COCc1ccccc1)NC[C@H](Cc1ccccc1)NC(=O)OC(C)(C)C)C(=O)NCc1ccccc1` [Example 62, BOC-PHE[CH2 NH]HIS(BOM)-STA-LEU-NHCH2 Ph], it took 16 µM to reach half-maximal inhibition (IC50).

`CC(C)CC(=O)N[C@@H](Cc1ccccc1)C(=O)N[C@@H](Cc1c[nH]cn1)C(=O)N[C@H](CN[C@@H](CC(C)C)C(=O)NCc1ccccc1)CC(C)C` [Example 65, L-histidinamide, N-(3-methyl-1-oxobutyl)-L-phenylalanyl-N-[3-methyl-1-[[[3-methyl-1-[[(phenylmethyl)amino]carbonyl]butyl]amino]methyl]butyl], [S-(R*,R*)]] showed an IC50 of 7.7 µM.

For the molecule `CC(C)CC(=O)N[C@@H](Cc1ccccc1)C(=O)N[C@H](CN[C@@H](CC(C)C)[C@@H](O)CC(=O)N[C@@H](CC(C)C)C(=O)NCc1ccccc1)Cc1c[nH]cn1` [Example 66, 3,8,11,14-Tetraazaoctadecanamide, 6-hydroxy-10-(1H-imidazol-4-ylmethyl)-17-methyl-2,7-bis(2-methylpropyl)-4,12,15-triazo-N,13-bis(phenylmethyl)-, [2S-(2R*,6R*,7R*,10R*,13R*)]], the IC50 stood at 3.5 µM.

The molecule `CC(C)CC(=O)N[C@@H](Cc1ccccc1)C(=O)N[C@@H](Cc1c[nH]cn1)C(=O)N[C@H](CN[C@@H](CC(C)C)C(=O)NCc1ccccc1)CC1CCCCC1` [Example 70, L-histidinamide, N-(3-methyl-1-oxobutyl)-L-phenylalanyl-N-[1-cyclohexylmethyl]-2-[[3-methyl-1-[[(phenylmethyl)amino]carbonyl]butyl]amino]ethyl]-, [S-(R*,R*)]] displayed an IC50 of 0.28 µM.

`CC[C@H](C)[C@H](NC[C@@H](NC(=O)CC(C)C)[C@@H](C)CC)C(=O)N[C@@H](CC(C)C)[C@@H](O)CC(=O)N[C@@H](CC(C)C)C(=O)NCc1ccccc1` [Example 73, 3,8,11,14-tetraazaoctadecanamide, 6-hydroxy-17-methyl-10,13-bis(1-methylpropyl)-2,7-bis(2-methylpropyl)-4,9,15-trioxo-N-(phenylmethyl)] showed an IC50 of 30 µM.

In turn, `CC(C)CC(COC(C(=O)NC(CC(C)C)C(O)CC(=O)NC(C)C(=O)NC(CC(C)C)C(O)CC(=O)NCc1ccccc1)c1ccccc1)NC(=O)OC(C)(C)C` (stereo not shown) [Example 75, 10,18-dihydroxy-14-methyl-3,9,17-tris-(2-methylpropyl)-7,12,15,20-tetraoxo-6,22-diphenyl-5-oxa-2,8,13,16,21-pentaazadocosanoic acid, 1,1-dimethylethyl ester] yielded an IC50 of 20 µM.

For the molecule `CC(C)CC(=O)N[C@@H](Cc1ccccc1)C(=O)N[C@@H](Cc1c[nH]cn1)C(=O)NC(CC(C)C)C(O)CC(CC(C)C)C(=O)NCc1ccccc1` (stereo partly drawn) [Example 76, L-Histidinamide, N-(3-methyl-1-oxobutyl)-L-phenylalanyl-N-[2-hydroxy-6-methyl-1-(2-methylpropyl)-4-[[(phenylmethyl)amino]carbonyl]heptyl]], the IC50 came to 0.74 µM.
